# Assay results as given in patent US8633251B2, “Derivatives of aminoalkanols, method of obtaining of aminoalkanols and their use” (Uniwersytet Jagiellonski, priority 2008, dated 2014).
# Read-outs that look alike come from different tables or passages of the source.
# Tests used:
# [1] = system: maximal electroshock seizures; test: Maximum Electroshock Seizure (MES) test, mice; assay type: in vivo
# Summary of the method: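 Mice received compound in methylcellulose i.p. or p.o. at 30, 100 and 300 mg/kg, with some tests at 10 and 3 mg/kg. At 0.5 or 4 h, after tetracaine eye-drops, current was delivered through corneal electrodes (60 Hz, 0.2 s, 50 mA). Groups were one mouse at 30 and 300 mg/kg and three at 100 mg/kg.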
# [2] = system: maximal electroshock seizures; test: Maximum Electroshock Seizure (MES) test, rats; assay type: in vivo
# Experimental: In order to define anticonvulsant activity, screening tests were performed, using animal models of seizures. […] The tests were based on administration of a compound to an animal and after certain time inducing state similar to epilepsy attack in human. Each substance (after dissolving in methylcellulose) was normally tested in doses 30, 100, and 300 mg/kg body weight (b.w.) (mice) or in 30 and 50 mg/kg b.w. (rats) in two possible routes of administration: intraperitoneal (i.p.) or oral (p.o.). […] […] (mice) the tests were also performed in doses 10 and 3 mg/kg b.w.
# Maximum Electroshock Seizure (MES) test is an electric test, verifying activity towards generalized tonic-clonic seizures (grand mal epilepsy). […] Its procedure consists in administration to an animal a mentioned dose, […] (after anesthetic eye-drops: 0.5% tetracaine hydrochloride in 0.9% NaCl) and turning on electric current (60 Hz, 0.2 s, 50 mA (mice) or 150 mA (rats)). […]
# neurotoxicity (rotarod) = test: Neurotoxicity test (TOX), rotarod, mice; assay type: in vivo
# [3] = system: 6 Hz focal seizures (limbic system); test: 6 Hz test, mice; assay type: in vivo; settings: for ED50: Mus musculus, ip, 0.25 h
# Experimental: (§1) For some compounds, a test for proconvulsant activity was performed (TTE test), as well as a test on activity in focal seizures (related with limbic system, 6 Hz test, hippocampal kindling). […] A test on inhibiting seizures induced by sound (Frings mice) was performed for compounds 12 and 26-28. Electrophysiology tests also have been performed, for seizures induced by bicuculline, picrotoxin, and NMDA. Prevention of (pilocarpine induced) status epilepticus has been noticed.
# [4] = system: seizures induced by sound; test: Sound-induced seizures, Frings mice; assay type: in vivo; settings: Frings mice
# Experimental: as §1
# [5] = system: hippocampal kindling seizures; test: Electric hippocampal kindling, rats; assay type: in vivo
# Experimental: as §1
# [6] = system: seizures induced by bicuculline; test: Bicuculline (BIC) induced seizures; assay type: in vivo
# Experimental: as §1
# [7] = system: seizures induced by picrotoxin; test: Picrotoxin (PIC) induced seizures; assay type: in vivo
# Experimental: as §1
# [8] = system: metrazol seizure threshold; test: Metrazol test, time to first twitch and first clonus; assay type: in vivo; settings: for average time until the first twitch: control 30.07 (±1.23) min.; for average time from administration until the first clonus: control 34.38 (±0.94) min.
# Experimental: In the MES test it inhibits seizures by inhibiting post-synaptic excitatory current. […] In the metrazol test average time until the first twitch was 27.3±0.2 min. for the dose 5 mg/kg b.w. and 27.6 (±0.3) min. for the dose 30 mg/kg b.w., comparing to the control 30.07 (±1.23) min. Average time from administration until the first clonus was 33.6 (±1.23) min. for the dose 5 mg/kg b.w. and 32.70 (±1.28) for the dose 30 mg/kg b.w., comparing to the control 34.38 (±0.94) min.
# [9] = system: formalin-induced pain (acute/neuropathic and inflammatory phase); test: Formalin test, mice; assay type: in vivo; settings: mice
# Experimental: The test was performed with use of formaldehyde as a substance causing pain (neuropathic and inflammatory afterwards) in mice, which were injected formalin into a hind limb.
# During the first 10 min. after administration the mouse is licking the hind limb (acute phase), afterwards there is a short break in behavior change, and then the mouse licks its limb again for another 20-30 min. (inflammatory phase) (FIG. 3 for 12 and FIG. 4 for 26). The acute phase represents direct affection on the peripheral nerve and the inflammatory phase is related with secretion of inflammation mediators from the damaged tissue and nerves. The described model tests effectiveness of a substance to inhibit acute and chronic excessive neuronal discharges in response to peripheral nerves activation.
# [10] = system: voltage-gated sodium channels; test: Electrophysiology, voltage-gated sodium channels; assay type: biochemical
# [11] = system: pilocarpine induced status epilepticus; test: Status epilepticus prevention (pilocarpine), rats; assay type: in vivo, Sprague Dawley albino rat; settings: i.p.; for Average weight loss ± S.E.M.: body weight loss 24 h after administration, 25 (27) or 45 (28) mg/kg b.w.; for protection in status epilepticus prevention: 25 (27) and 45 (28) mg/kg b.w.; for Protection: rats protected/tested, time 0 h, dose 25 (27) or 45 (28) mg/kg b.w.
# Experimental: Status epilepticus prevention—an animal (Sprague Dawley albino rat male) is given a dose of tested substance. After 0, 0.25, 0.5, 1, 2, and 4 h pilocarpine is administered. The seizures induced are described by Racine's score. Compounds 27 and 28 were administered i.p. in doses 25 and 45 mg/kg b.w. respectively. […] Average body weight loss is measured 24 h after administration.
# [12] = system: pentylenetetrazol-induced seizures; test: Subcutaneous Metrazol Test (ScMet), mice; assay type: in vivo; settings: Mus musculus, sc, dose 30 mg/kg b.w., 4 h, read-out: ScMet, No. of protected animals/No. of used animals (converted)
# Experimental: In order to define anticonvulsant activity, screening tests were performed, using animal models of seizures. […] The tests were based on administration of a compound to an animal and after certain time inducing state similar to epilepsy attack in human. Each substance (after dissolving in methylcellulose) was normally tested in doses 30, 100, and 300 mg/kg body weight (b.w.) (mice) or in 30 and 50 mg/kg b.w. (rats) in two possible routes of administration: intraperitoneal (i.p.) or oral (p.o.). Appropriate tests were performed 0.5 and 4 h after administration of the compound. […] (mice) the tests were also performed in doses 10 and 3 mg/kg b.w.
# Subcutaneous Metrazol Test (ScMet) is a chemical test, where compounds are tested for activity in absence seizures (petit mal epilepsy). Pentetrazol (metrazol) is considered to block chloride channel in the GABAA receptor complex, therefore at a certain dose in animals it causes myoclonic jerks, next—clonic seizures, and then tonic seizures. The procedure consists in administration of a tested compound and after 0.5 or 4 h subcutaneous administration of pentylenetetrazol in the dose of 85 mg/kg b.w. (mice) or 70 mg/kg b.w. (rats) in a 0.85% solution in 0.9% NaCl. […] Normally the test is performed in single animals.
# [13] = mice, dose 30 mg/kg b.w., time 0.5 h
# [14] = mice, dose 100 mg/kg b.w., time 0.5 h
# [15] = mice, dose 300 mg/kg b.w., time 0.5 h
compound,measurement,setting,value
"Cc1cccc(C)c1OCCNC(C)CO (stereo not drawn) [Compound 11, R,S-2N-[(2,6-dimethylphenoxy)ethyl]amino-1-propanol]","MES, No. of protected animals/No. of used animals",[1]; [13],1/1
same,"ED50 (MES, rats, p.o., 0.25 h)",[2],47.03 mg/kg b.w.
same,"TOX, No. of animals exhibiting motor impairment/no. of used animals","neurotoxicity (rotarod); mouse, in vivo, 30 mg/kg",2/4
same,"TOX, No. of animals exhibiting motor impairment/no. of used animals","neurotoxicity (rotarod); mouse, in vivo, 100 mg/kg",8/8
same,"TOX, No. of animals exhibiting motor impairment/no. of used animals","neurotoxicity (rotarod); mouse, in vivo, 300 mg/kg",4/4
"Cc1cccc(C)c1OCCN[C@H](C)CO [Compound 12, R-(−)-2N-[(2,6-dimethylphenoxy)ethyl]amino-1-propanol]",responders at 10 mg/kg,"[1]; Mus musculus, mice, dose 10 mg/kg b.w., time 0.5 h, read-out: MES, No. of protected animals/No. of used animals (converted)",25%
same,responders at 30 mg/kg,"[1]; Mus musculus, mice, dose 30 mg/kg b.w., time 0.5 h, read-out: MES, No. of protected animals/No. of used animals",100%
same,responders at 100 mg/kg,"[1]; Mus musculus, mice, dose 100 mg/kg b.w., time 0.5 h, read-out: MES, No. of protected animals/No. of used animals (converted)",100%
same,responders at 100 mg/kg,"[1]; Mus musculus, mice, dose 100 mg/kg b.w., time 4 h, read-out: MES, No. of protected animals/No. of used animals (converted)",50%
same,"ED50 (MES, female mice, i.p., 0.25 h)","[1]; female mice, i.p., 0.25 h",22.28 mg/kg b.w.
same,"activity in MES, mice",[1]; mice,active
same,"ED50 (MES, mice, i.p., 0.25 h)","[1]; mice, i.p., 0.25 h",5.34 mg/kg b.w.
same,"ED50 (MES, mice, p.o., 0.25 h)","[1]; mice, p.o., 0.25 h",51.19 mg/kg b.w.
same,"activity in MES, rats",[2],active
same,"ED50 (MES, rats, i.p., 0.25 h)",[2],7.43 mg/kg b.w.
same,"ED50 (MES, rats, p.o., 0.25 h)",[2],28.60 mg/kg b.w.
same,"TOX, No. of animals exhibiting motor impairment/no. of used animals",neurotoxicity (rotarod); [14],8/8
same,"TOX, No. of animals exhibiting motor impairment/no. of used animals","neurotoxicity (rotarod); mice, dose 100 mg/kg b.w., time 4 h, 100 mg/kg",1/3
same,"TOX, No. of animals exhibiting motor impairment/no. of used animals",neurotoxicity (rotarod); [15],4/4
same,ED50,"[3]; read-out: ED50 (6 Hz, female mice, i.p., 22 mA, 0.25 h)",7.06 mg/kg
same,ED50,"[3]; read-out: ED50 (6 Hz, mice, i.p., 22 mA, 0.25 h)",43.8 mg/kg
same,"ED50 (6 Hz, female mice, i.p., 44 mA, 0.25 h)","[3]; female mice, i.p., 44 mA",41.3 mg/kg b.w.
same,"ED50 (6 Hz, mice, i.p., 44 mA, 0.25 h)","[3]; mice, i.p., 44 mA",30.02 mg/kg b.w.
same,"ED50 (Frings mice, 0.25 h)",[4],5.39 mg/kg b.w.
same,"activity in electric kindling (rats, hippocampus)",[5]; 0.25 h after administration of 60 mg/kg b.w.,reveals activity
same,"ED50 (kindling, rats, hippocampus, 0.25 h)",[5],> 30 mg/kg b.w.
same,"ED50 (BIC, 0.25 h)",[6],> 75 mg/kg b.w.
same,"ED50 (PIC, 0.25 h)",[7],> 75 mg/kg b.w.
same,average time until the first twitch,[8]; dose 5 mg/kg b.w.,27.3 ± 0.2 min
same,average time from administration until the first clonus,[8]; dose 5 mg/kg b.w.,33.6 (±1.23) min.
same,average time until the first twitch,[8]; dose 30 mg/kg b.w.,27.6 (±0.3) min.
same,average time from administration until the first clonus,[8]; dose 30 mg/kg b.w.,32.70 (±1.28)
same,formalin test result (FIG. 3),[9],inhibiting neuropathic pain (first 10 min. phase) and inflammatory pain (next 30 min. phase)
same,effect on voltage-gated sodium channels,[10],blocks voltage-gated sodium channels dependently on the voltage
"Cc1cccc(C)c1OCCN[C@@H](C)CO [Compound 13, S-(+)-2N-[(2,6-dimethylphenoxy)ethyl]amino-1-propanol]","MES, No. of protected animals/No. of used animals","[1]; mice, dose 10 mg/kg b.w., time 0.5 h",2/4
same,"MES, No. of protected animals/No. of used animals",[1]; [13],1/1
same,"ED50 (MES, mice, i.p., 0.25 h)","[1]; mice, i.p., 0.25 h",8.59 mg/kg b.w.
same,"ED50 (MES, rats, i.p., 0.25 h)",[2],6.50 mg/kg b.w.
same,"TOX, No. of animals exhibiting motor impairment/no. of used animals","neurotoxicity (rotarod); mouse, in vivo, 100 mg/kg",8/8
same,"TOX, No. of animals exhibiting motor impairment/no. of used animals","neurotoxicity (rotarod); mouse, in vivo, 300 mg/kg",4/4
"CC[C@H](CO)NCCOc1c(C)cccc1Cl [Compound 27, R-(−)-2N-[(2-chlor-6-methylphenoxy)ethyl]amino-1-butanol]","MES, No. of protected animals/No. of used animals",[1]; [13],1/1
same,"MES, No. of protected animals/No. of used animals",[1]; [14],1/1
same,"TOX, No. of animals exhibiting motor impairment/no. of used animals",neurotoxicity (rotarod); [14],8/8
same,"TOX, No. of animals exhibiting motor impairment/no. of used animals",neurotoxicity (rotarod); [15],4/4
same,Average weight loss ± S.E.M.,[11],8.3 ± 7.1
same,protection in status epilepticus prevention,[11],2 rats out of 8
same,Protection,[11],2/8
"CC[C@@H](CO)NCCOc1c(C)cccc1Cl [Compound 28, S-(+)-2N-[(2-chlor-6-methylphenoxy)ethyl]amino-1-butanol]","MES, No. of protected animals/No. of used animals",[1]; [13],1/1
same,"MES, No. of protected animals/No. of used animals",[1]; [14],1/1
same,"TOX, No. of animals exhibiting motor impairment/no. of used animals",neurotoxicity (rotarod); [14],8/8
same,"TOX, No. of animals exhibiting motor impairment/no. of used animals",neurotoxicity (rotarod); [15],4/4
same,"ED50 (kindling, rats, hippocampus, 0.25 h)",[5],15.81 mg/kg b.w.
same,Average weight loss ± S.E.M.,[11],3.8 ± 5.7
same,protection in status epilepticus prevention,[11],3 rats out of 8
same,Protection,[11],3/8
"Cc1cccc(C)c1OCC(=O)N[C@H](C)C(N)=O [Compound 65, D-2N-[(2,6-dimethylphenoxy)acetyl]aminopropionamide]",responders at 300 mg/kg,"[1]; Mus musculus, mice, dose 300 mg/kg b.w., 0.5 h, read-out: MES, No. of protected animals/No. of used animals",100%
same,responders at 30 mg/kg,[12],20%
same,"TOX, No. of animals exhibiting motor impairment/no. of used animals","neurotoxicity (rotarod); mice, dose 100 mg/kg b.w., 0.5 h",2/8
same,"TOX, No. of animals exhibiting motor impairment/no. of used animals","neurotoxicity (rotarod); mice, dose 300 mg/kg b.w., 0.5 h",1/4
same,melting point,,177 to 178 °C
